Key:
dog [1] = settings: Sub-acute repeat dose toxicity, beagle, Oral, Gavage/Intubation, dose end: 14 day, group: systemic
rat [2] = settings: Sub-acute repeat dose toxicity; sprague dawley; Oral; Gavage/Intubation; dose end: 14 day; group: systemic; systemic / clinical chemistry / [other] / [other] + systemic / clinical chemistry / 5' nucleotidase / 5' nucleotidase + systemic / clinical …
rat [3] = settings: Prenatal developmental toxicity study, other, Oral, Gavage/Intubation, dose end: 15 GD
mouse [4] = settings: Combined chronic toxicity/carcinogenicity, other, Oral, Feed, dose end: 104 week, group: systemic
rat [5] = settings: Combined chronic toxicity/carcinogenicity, wistar, Oral, Feed, dose end: 104 week
dog [6] = settings: Chronic toxicity, beagle, Oral, Feed, dose end: 52 week, group: systemic
dog [7] = settings: Subchronic oral toxicity in nonrodent, beagle, Feed, dose end: 13 week, group: systemic, systemic / organ weight / lung / relative to body weight + systemic / pathology gross / lung / [other] + systemic / pathology microscopic / …
mouse [8] = settings: Combined chronic toxicity/carcinogenicity, other, Oral, [Not Specified], dose end: 99 week, group: systemic
rat [9] = settings: Subchronic oral toxicity in rodents, fischer, Feed, dose end: 13 week
rat [10] = settings: Combined chronic toxicity/carcinogenicity; fischer; Oral; Feed; dose end: 24 month; group: systemic; systemic / in life observation / body weight / body weight + systemic / in life observation / body weight / body weight gain + systemic / …
rat [11] = settings: Prenatal developmental toxicity study, sprague dawley, Oral, Gavage/Intubation, dose end: 17 GD
dog [12] = settings: Chronic toxicity; beagle; Oral; Feed; dose end: 52 week; group: systemic; systemic / organ weight / adrenal gland / absolute + systemic / organ weight / adrenal gland / relative to body weight + systemic / …
mouse [13] = settings: Combined chronic toxicity/carcinogenicity; b6c3f1; Oral; Feed; dose end: 104 week; group: systemic; systemic / in life observation / body weight / body weight + systemic / in life observation / body weight / body weight gain + systemic / …
mouse [14] = settings: Combined chronic toxicity/carcinogenicity, b6c3f1, Oral, Feed, dose end: 5 week, group: systemic
rat [15] = settings: Combined chronic toxicity/carcinogenicity, fischer, Oral, Feed, dose end: 119 week, group: systemic
mouse [16] = settings: Combined chronic toxicity/carcinogenicity, b6c3f1, Oral, Feed, dose end: 104 week, group: systemic
rat [17] = settings: Combined chronic toxicity/carcinogenicity, fischer, Oral, Feed, dose end: 13 week, group: systemic
[18] = systemic / clinical chemistry / cholesterol / cholesterol + systemic / clinical chemistry / thyroid stimulating hormone (thyrotropin) (tsh…
[19] = systemic / clinical chemistry / thyroid stimulating hormone (thyrotropin) (tsh) / thyroid stimulating hormone (=thyrotropin) (tsh) + …
[20] = group: developmental, developmental / developmental malformation / bone / delayed ossification
[21] = group: developmental, developmental / developmental malformation / bone / delayed ossification + systemic / in life observation / body weight / fetal weight
[22] = group: maternal, systemic / in life observation / body weight / body weight gain + systemic / in life observation / clinical signs / emaciation + systemic / …
[23] = group: cholinesterase, cholinesterase / cholinesterase / cholinesterase / erythrocyte cholinesterase (che)
[24] = group: systemic, systemic / organ weight / kidney / absolute + systemic / organ weight / ovary / absolute
[25] = group: systemic, systemic / organ weight / kidney / absolute + systemic / organ weight / ovary / absolute + systemic / organ weight / brain / relative to …
[26] = systemic / pathology microscopic / lung / [other] + systemic / urinalysis / [other] / urine
[27] = systemic / in life observation / body weight / body weight + systemic / in life observation / food consumption / food consumption + systemic…
[28] = systemic / in life observation / food consumption / food consumption + systemic / pathology microscopic / blood / [other] + systemic / …
[29] = group: cholinesterase, cholinesterase / cholinesterase / cholinesterase / plasma cholinesterase (che)
[30] = group: systemic, systemic / organ weight / kidney / relative to body weight + systemic / organ weight / liver / absolute + systemic / organ weight / liver / …
[31] = group: maternal, systemic / in life observation / body weight / body weight gain + systemic / in life observation / food consumption / food consumption + …
[32] = systemic / organ weight / liver / absolute + systemic / organ weight / liver / relative to body weight + systemic / pathology microscopic / …
[33] = systemic / in life observation / body weight / body weight gain + systemic / organ weight / liver / relative to body weight + systemic / …
[34] = systemic / organ weight / kidney / absolute + systemic / organ weight / liver / relative to body weight
[35] = systemic / organ weight / kidney / absolute + systemic / organ weight / liver / relative to body weight + systemic / organ weight / kidney…
[36] = systemic / organ weight / spleen / absolute + systemic / organ weight / spleen / relative to body weight

Cc1cc(NC(=O)C(=O)O)cc(C)c1Oc1ccc(O)c2c1CCC2
LEL (dog [1]; [18]): 5 mg/kg/day
NEL (dog [1]; [18]): < 5 mg/kg/day
LOAEL (dog [1]; [19]): > 100 mg/kg/day
NOAEL (dog [1]; [19]): ≥ 100 mg/kg/day
LEL (rat [2]): 1 mg/kg/day
LOAEL (rat [2]): > 1000 mg/kg/day
NEL (rat [2]): < 1 mg/kg/day
NOAEL (rat [2]): ≥ 1000 mg/kg/day

C[n+]1ccc(-c2cc[n+](C)cc2)cc1.[Cl-].[Cl-] [Paraquat dichloride]
LOAEL (rat [3]; [20]): 5 mg/kg/day
LEL (rat [3]; [21]): 5 mg/kg/day
NEL (rat [3]; [21]): 1 mg/kg/day
NOAEL (rat [3]; [21]): 1 mg/kg/day
LEL (rat [3]; [22]): 5 mg/kg/day
LOAEL (rat [3]; [22]): 5 mg/kg/day
NEL (rat [3]; [22]): 1 mg/kg/day
NOAEL (rat [3]; [22]): 1 mg/kg/day
NOAEL (mouse [4]; systemic / hematology / leukocyte (wbc) count differential / leukocyte (wbc)): 3.82 mg/kg/day
LOAEL (mouse [4]; systemic / hematology / leukocyte (wbc) count differential / leukocyte (wbc) + systemic / hematology / erythrocyte (rbc) count differential…): 13 mg/kg/day
LEL (mouse [4]; systemic / pathology microscopic / mammary gland / [other]): 3.82 mg/kg/day
NEL (mouse [4]; systemic / pathology microscopic / mammary gland / [other] + systemic / clinical chemistry / glucose / glucose + systemic / clinical …): 1.32 mg/kg/day
LEL (rat [5]; [23]): 15 mg/kg/day
LOAEL (rat [5]; [23]): 15 mg/kg/day
NEL (rat [5]; [23]): 5 mg/kg/day
NOAEL (rat [5]; [23]): 5 mg/kg/day
NEL (rat [5]; [24]): 5 mg/kg/day
NOAEL (rat [5]; [24]): 5 mg/kg/day
LEL (rat [5]; [25]): 15 mg/kg/day
LOAEL (rat [5]; [25]): 15 mg/kg/day
LEL (dog [6]; [26]): 0.45 mg/kg/day
NEL (dog [6]; [26]): < 0.45 mg/kg/day
LOAEL (dog [6]; systemic / pathology microscopic / lung / inflammation): 0.93 mg/kg/day
NOAEL (dog [6]; systemic / pathology microscopic / lung / inflammation + systemic / pathology microscopic / ear / squamous cell papilloma + systemic / in …): 0.45 mg/kg/day
LEL (dog [7]): 1.5 mg/kg/day
LOAEL (dog [7]): 1.5 mg/kg/day
NEL (dog [7]): 0.5 mg/kg/day
NOAEL (dog [7]): 0.5 mg/kg/day
LOAEL (mouse [8]; [27]): 5.62 mg/kg/day
NOAEL (mouse [8]; [27]): 1.88 mg/kg/day
LEL (mouse [8]; [28]): 1.88 mg/kg/day
NEL (mouse [8]; [28]): < 1.88 mg/kg/day

C[C@H]1[C@H](c2ccc(Cl)cc2)SC(=O)N1C(=O)NC1CCCCC1 [Hexythiazox]
LEL (rat [9]; [29]): 50 mg/kg/day
LOAEL (rat [9]; [29]): > 350 mg/kg/day
NEL (rat [9]; [29]): 7 mg/kg/day
NOAEL (rat [9]; [29]): ≥ 350 mg/kg/day
LEL (rat [9]; [30]): 50 mg/kg/day
LOAEL (rat [9]; [30]): 50 mg/kg/day
NEL (rat [9]; [30]): 7 mg/kg/day
NOAEL (rat [9]; [30]): 7 mg/kg/day
LEL (rat [10]): 163 mg/kg/day
LOAEL (rat [10]): 163 mg/kg/day
NEL (rat [10]): 23 mg/kg/day
NOAEL (rat [10]): 23 mg/kg/day
LEL (rat [11]; [20]): 720 mg/kg/day
LOAEL (rat [11]; [20]): > 2160 mg/kg/day
NEL (rat [11]; [20]): 240 mg/kg/day
NOAEL (rat [11]; [20]): ≥ 2160 mg/kg/day
LOAEL (rat [11]; group: maternal, systemic / in life observation / body weight / body weight gain + systemic / in life observation / food consumption / food consumption): 720 mg/kg/day
LEL (rat [11]; [31]): 720 mg/kg/day
NEL (rat [11]; [31]): 240 mg/kg/day
NOAEL (rat [11]; [31]): 240 mg/kg/day
LEL (dog [12]): 13.1 mg/kg/day
LOAEL (dog [12]): 13.1 mg/kg/day
NEL (dog [12]): 2.87 mg/kg/day
NOAEL (dog [12]): 2.87 mg/kg/day
LEL (mouse [13]): 267 mg/kg/day
LOAEL (mouse [13]): 267 mg/kg/day
NEL (mouse [13]): 41.6 mg/kg/day
NOAEL (mouse [13]): 41.6 mg/kg/day

CC(C)=CC1C(C(=O)OCc2cccc(Oc3ccccc3)c2)C1(C)C (centres undefined) [Phenothrin]
LOAEL (mouse [14]; [32]): 565 mg/kg/day
NEL (mouse [14]; [32]): 57 mg/kg/day
NOAEL (mouse [14]; [32]): 190 mg/kg/day
LEL (mouse [14]; systemic / pathology microscopic / liver / necrosis): 190 mg/kg/day
NOAEL (rat [15]; systemic / in life observation / body weight / body weight gain): 50 mg/kg/day
LEL (rat [15]; [33]): 150 mg/kg/day
LOAEL (rat [15]; [33]): 150 mg/kg/day
NEL (rat [15]; systemic / organ weight / liver / relative to body weight): 50 mg/kg/day
LEL (mouse [16]; [34]): 45 mg/kg/day
NEL (mouse [16]; [34]): < 45 mg/kg/day
LOAEL (mouse [16]; [35]): 150 mg/kg/day
NOAEL (mouse [16]; [35]): 45 mg/kg/day
LOAEL (rat [17]; systemic / clinical chemistry / cholesterol / cholesterol + systemic / clinical chemistry / lactic acid dehydrogenase (ldh) / lactic acid …): 216 mg/kg/day
LEL (rat [17]; [36]): 21 mg/kg/day
NEL (rat [17]; [36]): < 21 mg/kg/day
NOAEL (rat [17]; systemic / organ weight / spleen / absolute + systemic / organ weight / spleen / relative to body weight + systemic / clinical chemistry / …): 70 mg/kg/day

From EPA's ToxRefDB 2
